Where two headings read alike, the source gives them in different places.
Columns and labels:
[1] = tested on: mouse brains (PD brain lesions); experiment: PET brain imaging of Rotenone-induced Parkinson's disease mice versus Sham; format: in vivo; conditions: for F-18 images of PD brains compared with the control group (Sham): Rotenone tube feeding 12 weeks
Description: Regarding its application, the present invention entails feeding Rotenone to mice by tube feeding continuously for 12 weeks to induce the mouse brains to manifest Parkinson's disease (PD) symptom animal mode for function as the experimental group, treating mice with placebo to serve as the control group (Sham) without manifesting any PD lesions, performing imaging of the mouse brains with an F-18-FE-PE21, F-18-FDOPA and F-18-α-syn3 respectively, displaying the longitudinal-section and cross-section images of the mouse brains, and comparing the intake of the F-18 imaging agent into the mouse brains.

[2] = logP analysis of the F-18-α-syn3; format: physicochemical
Description: The experimental results of the logP analysis of the F-18-α-syn3 of the present invention are as follows:
The above data is about testing the logP of the F-18-α-syn3 labeling finished product solution repeatedly. The result confirms that all the logP values range from 2 to 3.

amyloid-β(Aβ) = amyloid-β(Aβ) (Homo sapiens, UniProt P05067); experiment: affinity comparison, amyloid-β; format: binding; conditions: read-out: amyloid-β(Aβ) value compared with the α-synuclein IC50
Sequence of amyloid-β(Aβ) (P05067 672-713 limits assumed): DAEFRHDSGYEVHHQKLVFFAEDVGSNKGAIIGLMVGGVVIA
Description: (§1) Therefore, the present invention not only effectively reduces the logP value but also passes a test of affinity, specificity, and parallel artificial membrane.

[3] = parallel artificial membrane permeation assay (PAMPA) simulating the blood-brain barrier; format: in vitro ADME
Description: as §1

α-synuclein = α-synuclein (Homo sapiens, UniProt P37840); experiment: test tube competition test, α-synuclein; conditions: read-out: IC50 (50% binding inhibition)
Description: as §1

[4] = F-18-α-syn3 serum stability; format: in vitro ADME; conditions: serum at 37° C., after a hour
Method: Moreover, the present invention discloses giving considerations to the F-18-α-syn3 formula and serum stability and thus conducting F-18-α-syn3 formula research to attain a recycling rate as high as 90.1%. Regarding a test of F-18-α-syn3 serum stability, medications are placed within serum at 37° C., achieving radioactive chemical purity of 91.5% even after a hour.

[5] = Rotenone PD mice versus Sham, PET

Structure (SMILES)	selectivity in terms of brain distribution [1, 5]	F-18 images of PD brains compared with the control group (Sham) ([1]; mice, PET)	brain intake, experimental group versus control group [1, 5]	background absorption level [1, 5]	passage through the blood-brain barrier (BBB) into mouse brains ([1]; mice)	logP ([2]; 50 uCi, read-out: logP)	logP ([2]; end solution, 22 uCi, read-out: logP)	logP ([2]; end solution, 50 uCi, read-out: logP)	logP ([2]; labeling finished product solution tested repeatedly, read-out: logP, range of all repeated tests)	IC50 (amyloid-β(Aβ)) [nM]	concentration that ensures the satisfaction of PAMPA [3]	PAMPA pass rate ([3]; concentration of 60 nM) [%]	IC50 (α-synuclein) [nM]	radioactive chemical purity in serum [4] [%]
N[C@@H](Cc1cc(O)c(O)cc1[18F])C(=O)O [F-18-FDOPA]	no selectivity	no difference and no specificity	–	–	–	–	–	–	–	–	–	–	–	–
Cc1ccc([C@H]2C[C@@H]3CC[C@H]([C@H]2C(=O)OCC[18F])N3C/C=C/I)cc1 [F-18-FE-PE21]	–	no difference and no specificity	lower	–	–	–	–	–	–	–	–	–	–	–
O=C1/C(=C\C=C\c2ccc([N+](=O)[O-])cc2)c2ccccc2N1CCOCCF [F-18-α-syn3, (Z)-1-(2-(2-fluoroethoxy)ethyl)-3-((E)-3-(4-nitrophenyl)allylidene) indolin-2-one]	–	clearer F-18 images	–	obviously lower	can pass through the blood-brain barrier	2.63	2.41	2.07	2 to 3	142	at least 6 nM	56.25	172	91.5
